Data set [1] addresses T1, Solute carrier family 22 member 6 (Rattus norvegicus, UniProt O35956).
T1 sequence (O35956 whole entry): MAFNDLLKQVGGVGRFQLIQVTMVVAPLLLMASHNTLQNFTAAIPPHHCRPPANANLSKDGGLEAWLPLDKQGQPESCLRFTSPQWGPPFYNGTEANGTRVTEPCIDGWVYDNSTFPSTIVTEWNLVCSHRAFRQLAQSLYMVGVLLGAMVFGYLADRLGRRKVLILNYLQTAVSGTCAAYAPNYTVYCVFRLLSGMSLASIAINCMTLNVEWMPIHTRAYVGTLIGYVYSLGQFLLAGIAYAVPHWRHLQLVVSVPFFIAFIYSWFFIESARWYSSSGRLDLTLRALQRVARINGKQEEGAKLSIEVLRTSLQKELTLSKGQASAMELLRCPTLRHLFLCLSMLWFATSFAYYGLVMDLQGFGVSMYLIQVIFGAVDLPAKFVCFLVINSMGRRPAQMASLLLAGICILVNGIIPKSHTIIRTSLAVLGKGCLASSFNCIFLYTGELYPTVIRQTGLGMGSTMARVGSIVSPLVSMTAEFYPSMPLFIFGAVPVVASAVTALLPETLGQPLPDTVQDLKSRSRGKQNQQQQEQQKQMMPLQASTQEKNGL
Put plainly: TP_TRANSPORTER: inhibition of PAH uptake (PAH: 50 uM, Urate; 1000 uM) in Xenopus laevis oocytes. It counts as functional, cell-based. The following applies: oocyte.

Substrate in data set [2]: Nc1ccc(C(=O)NCC(=O)O)cc1
Description: cells, lysate or membranes named.

Regarding `O=c1[nH]c(=O)c2[nH]c(=O)[nH]c2[nH]1` [URIC ACID], in data set [1], the Activity entry is “is not an inhibitor [-]”.

B1: Solute carrier family 22 member 6 (Rattus norvegicus) (protein)
chain: MAFNDLLKQVGGVGRFQLIQVTMVVAPLLLMASHNTLQNFTAAIPPHHCRPPANANLSKDGGLEAWLPLDKQGQPESCLRFTSPQWGPPFYNGTEANGTRVTEPCIDGWVYDNSTFPSTIVTEWNLVCSHRAFRQLAQSLYMVGVLLGAMVFGYLADRLGRRKVLILNYLQTAVSGTCAAYAPNYTVYCVFRLLSGMSLASIAINCMTLNVEWMPIHTRAYVGTLIGYVYSLGQFLLAGIAYAVPHWRHLQLVVSVPFFIAFIYSWFFIESARWYSSSGRLDLTLRALQRVARINGKQEEGAKLSIEVLRTSLQKELTLSKGQASAMELLRCPTLRHLFLCLSMLWFATSFAYYGLVMDLQGFGVSMYLIQVIFGAVDLPAKFVCFLVINSMGRRPAQMASLLLAGICILVNGIIPKSHTIIRTSLAVLGKGCLASSFNCIFLYTGELYPTVIRQTGLGMGSTMARVGSIVSPLVSMTAEFYPSMPLFIFGAVPVVASAVTALLPETLGQPLPDTVQDLKSRSRGKQNQQQQEQQKQMMPLQASTQEKNGL
In the case of B1, in data set [2], the Km (as a rule, the substrate concentration at which the rate is half of its maximum) was determined as 70 µM.
